# Measured values taken from patent US20050009840A1 (SUGEN, INC., priority 2003, published 2005).
# Values joined by “and” are separate entries in the source; they are usually repeats but may differ in a detail not shown here. Equal values may be shown once.
# Target: T1, Met kinase domain (GST fusion protein) (Homo sapiens, UniProt P08581)
# T1 construct: Purified GST fusion protein containing the Met kinase domain
# Test: Met transphosphorylation assay (ELISA, poly(glu-tyr) substrate);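 further: Cell-free ELISA with plate-bound poly(Glu:Tyr 4:1) phosphorylated by GST-fused Met kinase domain plus ATP and Mn2+, phosphotyrosine detected by anti-phosphotyrosine antibody with HRP and ABTS read-out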
# Format: biochemical
# Conditions: Table 2; read-out: Met IC50
# T1 sequence (P08581 1078-1345 limits assumed): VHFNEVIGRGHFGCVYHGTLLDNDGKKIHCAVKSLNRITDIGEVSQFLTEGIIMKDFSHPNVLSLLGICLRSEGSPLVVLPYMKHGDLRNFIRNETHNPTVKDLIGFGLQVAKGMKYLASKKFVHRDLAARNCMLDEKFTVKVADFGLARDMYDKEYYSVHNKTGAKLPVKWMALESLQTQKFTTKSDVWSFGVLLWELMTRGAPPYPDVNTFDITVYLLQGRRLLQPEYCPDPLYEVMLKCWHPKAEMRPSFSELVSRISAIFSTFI
row,SMILES,IC50
1,"Nc1ncc(-c2ccc(C(=O)NCCCN3CCOCC3)cc2)cc1OCc1c(F)ccc(F)c1Cl [Example I-224, 4-[6-Amino-5-(2-chloro-3,6-difluoro-benzyloxy)-pyridin-3-yl]-N-(3-morpholin-4-yl-propyl)-benzamide]",280 nM
2,"Nc1ncc(-c2cccc(C(=O)O)c2)cc1OCc1c(F)ccc(F)c1Cl [Example I-225, 3-[6-Amino-5-(2-chloro-3,6-difluoro-benzyloxy)-pyridin-3-yl]-benzoic acid]",3700 nM and 600 nM
3,"CN1CCN(C(=O)c2cccc(-c3cnc(N)c(OCc4c(F)ccc(F)c4Cl)c3)c2)CC1 [Example I-226, {3-[6-Amino-5-(2-chloro-3,6-difluoro-benzyloxy)-pyridin-3-yl]-phenyl}-(4-methyl-piperazin-1-yl)-methanone]",68 nM
4,"Nc1ncc(-c2cccc(C(=O)N3CCC(N)CC3)c2)cc1OCc1c(F)ccc(F)c1Cl [Example I-228, {3-[6-Amino-5-(2-chloro-3,6-difluoro-benzyloxy)-pyridin-3-yl]-phenyl}-(4-amino-piperidin-1-yl)-methanone]",230 nM
5,"CN(C)[C@H]1CCN(C(=O)c2cccc(-c3cnc(N)c(OCc4c(F)ccc(F)c4Cl)c3)c2)C1 [Example I-231, {-[6-Amino-5-(2-chloro-3,6-difluoro-benzyloxy)-pyridin-3-yl]-phenyl}-[(3S)-3-dimethylamino-pyrrolidin-1-yl]-methanone]",128 nM
6,"Nc1ncc(-c2cccc(C(=O)N3CC[C@@H](N)C3)c2)cc1OCc1c(F)ccc(F)c1Cl [Example I-232, {3-[6-Amino-5-(2-chloro-3,6-difluoro-benzyloxy)-pyridin-3-yl]-phenyl}-[(3R)-3-amino-pyrrolidin-1-yl]-methanone]",120 nM
7,"Nc1ncc(-c2cccc(C(=O)N3CC[C@H](N)C3)c2)cc1OCc1c(F)ccc(F)c1Cl [Example I-233, {3-[6-Amino-5-(2-chloro-3,6-difluoro-benzyloxy)-pyridin-3-yl]-phenyl}-[(3S)-amino-pyrrolidin-1-yl]-methyanone]",120 nM
8,"Nc1ncc(-c2cccc(C(=O)NCCCN3CCCC3)c2)cc1OCc1c(F)ccc(F)c1Cl [Example I-236, 3-[6-Amino-5-(2-chloro-3,6-difluoro-benzyloxy)-pyridin-3-yl]-N-(3-pyrrolidin-1-yl-propyl)-benzamide]",280 nM
9,"Nc1ncc(-c2cccc(C(=O)NCCCN3CCOCC3)c2)cc1OCc1c(F)ccc(F)c1Cl [Example I-238, 3-[6-Amino-5-(2-chloro-3,6-difluoro-benzyloxy)-pyridin-3-yl]-N-(3-morpholin-4-yl-propyl)-benzamide]",350 nM
10,"CC(=O)N1CCN(CCNC(=O)c2cccc(-c3cnc(N)c(OCc4c(F)ccc(F)c4Cl)c3)c2)CC1 [Example I-239, N-[2-(4-Acetyl-piperazin-1-yl)-ethyl]-3-[6-amino-5-(2-chloro-3,6-difluoro-benzyloxy)-pyridin-3-yl]-benzamide]",100 nM
11,"Nc1ncc(-c2ccc(N3CCCS3(=O)=O)cc2)cc1OCc1c(F)ccc(F)c1Cl [Example I-240, 3-(2-Chloro-3,6-difluoro-benzyloxy)-5-[4-(1,1-dioxo-1λ^6-isothiazolidin-1-yl)-phenyl]-pyridin-2-ylamine]",100 nM
12,Nc1ncc(-c2ccc(N3CCCS3(=O)=O)cc2)cc1OCc1c(Cl)cccc1Cl [Example I-241],67 nM
13,"Nc1ncc(-c2ccc(N3CCCS3(=O)=O)cc2)cc1OCc1c(F)cccc1C(F)(F)F [Example I-242, 5-[4-(1,1-Dioxo-1λ^6-isothiazolidin-2-yl)-phenyl]-3-(2-fluoro-6-trifluoromethyl-benzyloxy)-pyridin-2-ylamine]",140 nM
14,"CCN(CC)CCS(=O)(=O)Nc1ccc(-c2cnc(N)c(OCc3c(F)ccc(F)c3Cl)c2)cc1 [Example I-243, 2-diethylamino-ethanesulfonic acid {4-[6-amino-5-(2-chloro-3,6-difluoro-benzyloxy)-pyridin-3-yl]-phenyl)amide]",43 nM
15,"Nc1ncc(-c2ccc(NS(=O)(=O)CCNC3CC3)cc2)cc1OCc1c(F)ccc(F)c1Cl [Example I-244, 2-Cydopropylamino-ethanesulfonic acid {4-[6-amino-5-(2-chloro-3,6-difluoro-benzyloxy)-pyridin-3-yl]-phenyl}-amide]",81 nM
16,"CN(C)CCS(=O)(=O)Nc1ccc(-c2cnc(N)c(OCc3c(F)ccc(F)c3Cl)c2)cc1 [Example I-249, 2-Dimethylamino-ethanesulfonic acid {4-[6-amino-5-(2-chloro-3,6-difluoro-benzyloxy)-pyridin-3-yl]-phenyl}-amide]",98 nM
17,"Nc1ncc(-c2ccc(NS(=O)(=O)CCNCC3CC3)cc2)cc1OCc1c(F)ccc(F)c1Cl [Example I-251, 2-(Cyclopropylmethyl-amino)-ethanesulfonic acid {4-[6-amino-5-(2-chloro-3,6-difluoro-benzyloxy)-pyridin-3-yl]-phenyl}-amide]",75 nM
18,"CC(=O)N1CCN(CCS(=O)(=O)Nc2cccc(-c3cnc(N)c(OCc4c(F)ccc(F)c4Cl)c3)c2)CC1 [Example I-255, 2-(4-Acetyl-piperazin-1-yl)-ethanesulfonic acid {3-[6-amino-5-(2-chloro-3,6-difluoro-benzyloxy)-pyridin-3-yl]-phenyl}-amide]",680 nM
19,"Nc1ncc(-c2cccc(NS(=O)(=O)CCN3CCOCC3)c2)cc1OCc1c(F)ccc(F)c1Cl [Example I-257, 2-Morpholin-4-yl-ethanesulfonic acid {3-[6-amino-5-(2-chloro-3,6-difluoro-benzyloxy)-pyridin-3-yl]-phenyl}-amide]",1640 nM
20,"CCN(CC)CCS(=O)(=O)Nc1cccc(-c2cnc(N)c(OCc3c(F)ccc(F)c3Cl)c2)c1 [Example I-258, 2-Diethylamino-ethanesulfonic acid {3-[6-amino-5-(2-chloro-3,6-difluoro-benzyloxy)-pyridin-3-yl]-phenyl}amide]",1670 nM
21,"CN(C)CCS(=O)(=O)Nc1cccc(-c2cnc(N)c(OCc3c(F)ccc(F)c3Cl)c2)c1 [Example I-259, 2-Dimethylamino-ethanesulfonic acid {3-[6-amino-5-(2-chloro-3,6-difluoro-benzyloxy)-pyridin-3-yl]-phenyl}-amide]",500 nM

# Second part, the molecule after the results:
row,IC50,SMILES
1,190 nM,Nc1ncc(-c2ccc(C(=O)NCCCN3CCCC3)cc2)cc1OCc1c(F)ccc(F)c1Cl [Example I-222]
2,165 nM,Nc1ncc(-c2ccc(C(=O)NCCN3CCOCC3)cc2)cc1OCc1c(F)ccc(F)c1Cl [Example I-223]
3,260 nM,"Nc1ncc(-c2cccc(C(=O)NCCN3CCCC3)c2)cc1OCc1c(F)ccc(F)c1Cl [Example I-235, 3-[6-Amino-5-(2-chloro-3,6-difluoro-benzyloxy)-pyridin-3-yl]-N-(2-pyrrolidin-1-yl-ethyl)-benzamide]"
4,350 nM,"Nc1ncc(-c2cccc(C(=O)NCCN3CCOCC3)c2)cc1OCc1c(F)ccc(F)c1Cl [Example I-237, 3-[6-Amino-5-(2-chloro-3,6-difluoro-benzyloxy)-pyridin-3-yl]-N-(2-morpholin-4-yl-ethyl)-benzamide]"
5,82 nM,Nc1ncc(-c2ccc(NS(=O)(=O)CCN3CCCC3)cc2)cc1OCc1c(F)ccc(F)c1Cl [Example I-245]
6,135 nM,"Nc1ncc(-c2ccc(NS(=O)(=O)CCN3CCC(O)CC3)cc2)cc1OCc1c(F)ccc(F)c1Cl [Example I-246, 2-(4-Hydoxy-piperidin-1-yl)-ethanesulfonic acid {4-[6-amino-5-(2-chloro-3,6-difluoro-benzyloxy)-pyridin-3-yl]-phenyl}-amide]"
7,310 nM,"Nc1ncc(-c2ccc(NS(=O)(=O)CCN3CCOCC3)cc2)cc1OCc1c(F)ccc(F)c1Cl [Example I-247, 2-Morpholin-4-yl-ethanesulfonic acid {4-[6-amino-5-(2-chloro-3,6-difluoro-benzyloxy)-pyridin-3-yl]-phenyl}-amide]"
8,114 nM,"Nc1ncc(-c2ccc(NS(=O)(=O)CCN3CCCCC3)cc2)cc1OCc1c(F)ccc(F)c1Cl [Example I-248, 2-Pipendin-1-yl-ethanesulfonic acid {4-[6-amino-5-(2-chloro-3,6-difluoro-benzyloxy)-pyridin-3-yl]-phenyl}-amide]"
9,420 nM,"CC(=O)N1CCN(CCS(=O)(=O)Nc2ccc(-c3cnc(N)c(OCc4c(F)ccc(F)c4Cl)c3)cc2)CC1 [Example I-250, 2-(4-Acetyl-piperazin-1-yl)-ethanesulfonic acid {4-[6-amino-5-(2-chloro-3,6-difluoro-benzyloxy)-pyridin-3-yl]-phenyl}-amide]"
10,125 nM,"Nc1ncc(-c2ccc(NS(=O)(=O)CCN3CC[C@@H](O)C3)cc2)cc1OCc1c(F)ccc(F)c1Cl [Example I-252, 2-[(3R)-3-Hydroxy-pyrrolidin-1-yl]-ethanesulfonic acid {4-[6-amino-5-(2-chloro-3,6-difluoro-benzyloxy)-pyridin-3-yl]-phenyl}-amide]"
11,97 nM,"Nc1ncc(-c2ccc(NS(=O)(=O)CCN3CCC[C@H]3CO)cc2)cc1OCc1c(F)ccc(F)c1Cl [Example I-253, 2-[(2S)-2-Hydroxymethyl-pyrrolidin-1-yl]-ethanesulfonic acid {4-[6-amino-5-(2-chloro-3,6-difluoro-benzyloxy)-pyridin-3-yl]-phenyl}-amide]"
12,180 nM,"Nc1ncc(-c2ccc(NS(=O)(=O)CCN3CCN(C(=O)CO)CC3)cc2)cc1OCc1c(F)ccc(F)c1Cl [Example I-254, 2-[4-(2-Hydroxy-acetyl)-piperazin-1-yl]-ethanesulfonic acid {4-[6-amino-5-(2-chloro-3,6-difluoro-benzyloxy)-pyridin 3-yl]-phenyl}-amide]"
13,230 nM,"Nc1ncc(-c2cccc(NS(=O)(=O)CCN3CCCC3)c2)cc1OCc1c(F)ccc(F)c1Cl [Example I-256, 2-Pyrrolidin-1-yl-ethanesulfonic acid {3-[6-amino-5-(2-chloro-3,6-difluoro-benzyloxy)-pyridin-3-yl]-phenyl}-amide]"
14,1630 nM,"Nc1ncc(-c2cccc(NS(=O)(=O)CCN3CCCCC3)c2)cc1OCc1c(F)ccc(F)c1Cl [Example I-260, 2-Pipendin-1-yl-ethanesulfonic acid {3-[6-amino-5-(2-chloro-3,6-difluoro-benzyloxy)-pyridin-3-yl]-phenyl}-amide]"
